Measured values taken from patent publication US20250340548A1, “KRAS G12C INHIBITORS” (Frontier Medicines Corporation, priority 2021, published 2025).

Target: T1, KRAS G12C and cRAF (Homo sapiens, UniProt P01116, C118S/C51S/C80L/G12C)
T1 construct: truncated version comprising amino acids 1-169
Assay: AlphaScreen inhibition of KRAS G12C (GMPPNP-loaded) and cRAF RBD binding
Assay type: biochemical
Conditions: KRAS G12C preloaded with GMPPNP, 0.5 nM KRAS G12C, 0.75 nM RBD, 19-20 h compound incubation, room temperature
Source text: The ability of compounds of Formula (I), Formula (I-1), Formula (I-2), Formula (II), Formula (II-1) and Formula (II-2), and pharmaceutically acceptable salts and/or isotopologues thereof, to inhibit activity of the GTP-bound form of KRAS G12C can be tested using methods such as the in vitro assay described in Examples 308 and 309 below. Example 308 describes determining, for various compounds, the half-maximal inhibition (IC50) of KRAS G12C loaded with GTP analogue GMPPNP from binding to cRaf, as the Ras-binding domain (RBD). […]
The AlphaScreen technology was used to determine IC50S for compound inhibition of KRAS G12C (present as the Cys-light (C51S, C80L and C118S), truncated version comprising amino acids 1-169) and cRAF interaction. […] A mixture of RBD and the AlphaScreen streptavidin donor and glutathione acceptor beads diluted in 25 mM Hepes, pH 7.4, 150 mM NaCl, 5 mM MgCl2, 0.01% TritonX-100 and 2% DMSO was then added at 10 ul/well and incubated for 60-90 minutes before the samples were read for emission at 570 nm after excitation of the donor beads at 680 nm. […] IC50S were determined using nonlinear regression fit of [inhibitor]vs. response (4 parameters).
A counter assay was also set up to rule out inhibitors of the AlphaScreen technology itself. […] Samples were read and analyzed as above.

T1 sequence (P01116 1-169 isoform P01116-2 G12C/C51S/C80L/C118S): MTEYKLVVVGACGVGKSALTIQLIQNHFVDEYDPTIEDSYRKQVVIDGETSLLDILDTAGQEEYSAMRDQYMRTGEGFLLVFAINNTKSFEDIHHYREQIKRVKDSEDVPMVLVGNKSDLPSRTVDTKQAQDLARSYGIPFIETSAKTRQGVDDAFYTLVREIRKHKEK

IC50: < 10 nM
SMILES: Cc1noc(/C=C/C(=O)N2CC(CN(C)c3nc(OC[C@@]45CCCN4C[C@H](F)C5)nc4c(F)c(-c5cc(O)cc6cccc(Cl)c56)ncc34)C2)n1 [Example 98, (E)-1-(3-(((7-(8-chloro-3-hydroxynaphthalen-1-yl)-8-fluoro-2-(((2R,7aS)-2-fluorotetrahydro-1H-pyrrolizin-7a(5H)-yl)methoxy)pyrido[4,3-d]pyrimidin-4-yl)(methyl)amino)methyl)azetidin-1-yl)-3-(3-methyl-1,2,4-oxadiazol-5-yl)prop-2-en-1-one]
